Earlier results, collected in patent US20260258033A1, “2,7-Naphthyridine Compounds as MASTL Inhibitors” (Pfizer Inc., priority 2022, published 2026).

Test system: breast cancer cells
Settings: in breast cancer cells; Kang et al., Pharmaceuticals 2021; read-out: cellular IC50; cited from earlier work

SMILES: N#CCc1ccc(Nc2nc(Nc3cc(C4CC4)[nH]n3)c3ccccc3n2)cc1 [MKI-2, 2-(4-((4-((5-cyclopropyl-1H-pyrazol-3-yl)amino)quinazolin-2-yl)amino)phenyl)acetonitrile]
- IC50: 143 nM
